Molecular target: S-adenosylmethionine synthase isoform type-2 (Homo sapiens, UniProt P31153)
Experiment: Determination of Mat2A Activity
Description: Measurement of Mat2A inhibition is performed in 384 well format absorbance-based assay. Recombinant human Mat2a (12.5 nM) and serial diluted compounds in DMSO (range of concentrations from 10 μM to 508 pM) or controls (DMSO) are incubated for 15 minutes at room temperature (RT) in assay buffer containing 50 mM HEPES pH 7.5, 50 mM KCl, 50 mM MgCl2, 0.01%Tween 20 and 10 mM DTT. The reaction is initiated by the addition of the combined substrates ATP and Methionine, each at a final concentration of 100 μM. Final assay condition are 12.5 nM Mat2A, 100 μM ATP and Methionine Substrates and 2% DMSO. After 120 minutes of incubation at RT, the reaction is stopped by the addition of Biomol Green. The absorbance signal is measured at λ=635 nm with a multiplate reader (BMG Pherastar reader or equivalent) after 30 min of equilibration at RT.

S-adenosylmethionine synthase isoform type-2, sequence (P31153 whole entry, canonical isoform): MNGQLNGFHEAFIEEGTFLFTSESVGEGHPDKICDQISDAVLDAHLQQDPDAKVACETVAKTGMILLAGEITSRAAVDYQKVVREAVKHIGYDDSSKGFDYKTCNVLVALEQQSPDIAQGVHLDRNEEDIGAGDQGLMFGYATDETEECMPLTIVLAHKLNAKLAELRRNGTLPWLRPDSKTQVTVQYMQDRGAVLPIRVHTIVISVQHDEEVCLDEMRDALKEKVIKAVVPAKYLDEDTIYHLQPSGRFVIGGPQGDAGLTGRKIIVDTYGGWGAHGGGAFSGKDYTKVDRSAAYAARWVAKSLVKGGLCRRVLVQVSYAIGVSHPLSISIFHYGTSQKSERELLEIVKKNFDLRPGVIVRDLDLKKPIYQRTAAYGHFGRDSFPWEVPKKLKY

How did the IC50 turn out when `Cc1cc(-c2c(S(C)(=N)=O)ccc3[nH]nc(C4CC4)c23)ccc1S(C)(=O)=O` (configuration not stated) [US12565497, Example 112] was run?
Its IC50 is 90 nM.

With `Cc1cc(-c2c(C(=O)NC3CC3)ncc3[nH]nc(C4CC4)c23)ccc1S(C)(=O)=O` [US12565497, Example 86] as the compound, how does the IC50 read?
The IC50 was < 13 nM.

Which IC50 does the source give for `Cc1cc(-c2c(S(C)(=O)=O)ccc3[nH]nc(OC(F)F)c23)ccc1S(=O)(=O)C(F)F` [US12565497, Example 117] here?
Its IC50 is < 13 nM.

For `COCCNC(=O)c1ncc2[nH]nc(OC(F)F)c2c1-c1ccc(S(=O)(=O)C(F)F)c(C)c1` [US12565497, Example 109], which IC50 is on record?
The IC50 was < 13 nM.

With `Cc1cc(-c2c(C(=O)NC3COC3)ncc3[nH]nc(C4CC4)c23)ccc1S(C)(=O)=O` [US12565497, Example 84] as the compound, how does the IC50 read?
The IC50 was < 13 nM.

`CCS(=O)(=O)c1ccc(-c2nccc3[nH]nc(C4CC4)c23)cc1C` [US12565497, Example 20] was tested. Which IC50 did it give?
The IC50 was 15 nM.

How did the IC50 turn out when `Cc1cc(-c2c(S(C)(=O)=O)ccc3[nH]nc(OC(F)F)c23)ccc1S(C)(=O)=O` [US12565497, Example 49] was run?
Its IC50 is < 13 nM.
